System: 556581-035-R-J1-PDC spheroids with HUVEC/MSC, viability
Test: Anticancer human tumor 556581-035-R-J1-PDC patient-derived ovarian carcinoma cell line growth inhibition [IpAb]
Details: for IC50: curve of first compound; for viability, T/C: stronger effect = lower value
Summary of the method: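 Multi-cell spheroids of 60% tumour cells, 25% HUVEC and 15% MSC in ultra-low-attachment U-bottom wells, treated with agents combined with ipatasertib or abemaciclib. Half-log ranges top out near clinical Cmax, or 10 microM when Cmax is unknown.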

[1] = second compound 0.01 µM, first compound 0.0316 µM
[2] = second compound 0.01 µM, first compound 0.1 µM
[3] = second compound 0.01 µM, first compound 0.316 µM
[4] = second compound 0.01 µM, first compound 1 µM
[5] = second compound 0.01 µM, first compound 3.16 µM
[6] = second compound 0.01 µM, first compound 10 µM
[7] = second compound 0.0316 µM, first compound 0.0316 µM
[8] = second compound 0.0316 µM, first compound 0.1 µM
[9] = second compound 0.0316 µM, first compound 0.316 µM
[10] = second compound 0.0316 µM, first compound 1 µM
[11] = second compound 0.0316 µM, first compound 3.16 µM
[12] = second compound 0.0316 µM, first compound 10 µM
[13] = second compound 0.1 µM, first compound 0.0316 µM
[14] = second compound 0.1 µM, first compound 0.1 µM
[15] = second compound 0.1 µM, first compound 0.316 µM
[16] = second compound 0.1 µM, first compound 1 µM
[17] = second compound 0.1 µM, first compound 3.16 µM
[18] = second compound 0.1 µM, first compound 10 µM
[19] = second compound 0.316 µM, first compound 0.0316 µM
[20] = second compound 0.316 µM, first compound 0.1 µM
[21] = second compound 0.316 µM, first compound 0.316 µM
[22] = second compound 0.316 µM, first compound 1 µM
[23] = second compound 0.316 µM, first compound 3.16 µM
[24] = second compound 0.316 µM, first compound 10 µM
[25] = second compound 1 µM, first compound 0.0316 µM
[26] = second compound 1 µM, first compound 0.1 µM
[27] = second compound 1 µM, first compound 0.316 µM
[28] = second compound 1 µM, first compound 1 µM
[29] = second compound 1 µM, first compound 3.16 µM
[30] = second compound 1 µM, first compound 10 µM
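Also: spheroids exposed to compounds for 7 days before readout.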

How did the IC50 (second compound 0.01 µM) turn out when `CC1(C)CCC(CN2CCN(c3ccc(C(=O)NS(=O)(=O)c4ccc(NCC5CCOCC5)c([N+](=O)[O-])c4)c(Oc4cnc5[nH]ccc5c4)c3)CC2)=C(c2ccc(Cl)cc2)C1` + CCN1CCN(Cc2ccc(Nc3ncc(F)c(-c4cc(F)c5nc(C)n(C(C)C)c5c4)n3)nc2)CC1 was run?
Its IC50 is 8.32 µM.

And the IC50 (second compound 0.0316 µM)?
Its IC50 is 6.5 µM.

What about the IC50 (second compound 0.1 µM) of the same compound?
The IC50 was 6.72 µM.

And the IC50 (second compound 0.316 µM)?
Its IC50 is 5.59 µM.

And the IC50 (second compound 1 µM)?
Its IC50 is 2.06 µM.

What about the viability, T/C [1] of the same compound?
The viability, T/C was 92.6%.

What about the viability, T/C [2] of the same compound?
The viability, T/C was 118%.

And the viability, T/C [3]?
Its viability, T/C is 112%.

And the viability, T/C [4]?
Its viability, T/C is 108%.

What about the viability, T/C [5] of the same compound?
Its viability, T/C is 102%.

And the viability, T/C [6]?
Its viability, T/C is 40.2%.

And the viability, T/C [7]?
The viability, T/C was 106%.

And the viability, T/C [8]?
The viability, T/C was 111%.

What about the viability, T/C [9] of the same compound?
The viability, T/C was 108%.

And the viability, T/C [10]?
Its viability, T/C is 98%.

What about the viability, T/C [11] of the same compound?
Its viability, T/C is 95.5%.

And the viability, T/C [12]?
Its viability, T/C is 23.7%.

And the viability, T/C [13]?
The viability, T/C was 122%.

What about the viability, T/C [14] of the same compound?
Its viability, T/C is 104%.

What about the viability, T/C [15] of the same compound?
The viability, T/C was 107%.

What about the viability, T/C [16] of the same compound?
Its viability, T/C is 94.4%.

What about the viability, T/C [17] of the same compound?
The viability, T/C was 91.6%.

What about the viability, T/C [18] of the same compound?
Its viability, T/C is 29.9%.

And the viability, T/C [19]?
The viability, T/C was 94%.

What about the viability, T/C [20] of the same compound?
The viability, T/C was 95.6%.

What about the viability, T/C [21] of the same compound?
Its viability, T/C is 92.2%.

And the viability, T/C [22]?
The viability, T/C was 94.4%.

What about the viability, T/C [23] of the same compound?
Its viability, T/C is 87.6%.

And the viability, T/C [24]?
The viability, T/C was 11.8%.

What about the viability, T/C [25] of the same compound?
The viability, T/C was 67%.

And the viability, T/C [26]?
Its viability, T/C is 58.1%.

And the viability, T/C [27]?
The viability, T/C was 68.6%.

And the viability, T/C [28]?
Its viability, T/C is 56.8%.

What about the viability, T/C [29] of the same compound?
The viability, T/C was 45.1%.

And the viability, T/C [30]?
The viability, T/C was 6.15%.

`CCCS(=O)(=O)Nc1ccc(F)c(C(=O)c2c[nH]c3ncc(-c4ccc(Cl)cc4)cc23)c1F` + CCN1CCN(Cc2ccc(Nc3ncc(F)c(-c4cc(F)c5nc(C)n(C(C)C)c5c4)n3)nc2)CC1 was tested. Which IC50 (second compound 0.01 µM) did it give?
The IC50 was greater than 10 µM.

What about the IC50 (second compound 0.0316 µM) of the same compound?
Its IC50 is greater than 10 µM.

And the IC50 (second compound 0.1 µM)?
The IC50 was greater than 10 µM.

What about the IC50 (second compound 0.316 µM) of the same compound?
Its IC50 is greater than 10 µM.

What about the IC50 (second compound 1 µM) of the same compound?
The IC50 was greater than 10 µM.

What about the viability, T/C [1] of the same compound?
The viability, T/C was 114%.

What about the viability, T/C [2] of the same compound?
The viability, T/C was 106%.

And the viability, T/C [3]?
Its viability, T/C is 123%.

And the viability, T/C [4]?
Its viability, T/C is 116%.

And the viability, T/C [5]?
The viability, T/C was 129%.

And the viability, T/C [6]?
Its viability, T/C is 71.9%.

What about the viability, T/C [7] of the same compound?
The viability, T/C was 99%.

And the viability, T/C [8]?
The viability, T/C was 97.2%.

What about the viability, T/C [9] of the same compound?
Its viability, T/C is 109%.

And the viability, T/C [10]?
The viability, T/C was 104%.

What about the viability, T/C [11] of the same compound?
Its viability, T/C is 110%.

What about the viability, T/C [12] of the same compound?
The viability, T/C was 60.9%.

And the viability, T/C [13]?
The viability, T/C was 128%.

And the viability, T/C [14]?
The viability, T/C was 113%.

And the viability, T/C [15]?
The viability, T/C was 123%.

And the viability, T/C [16]?
Its viability, T/C is 104%.

And the viability, T/C [17]?
Its viability, T/C is 100%.

What about the viability, T/C [18] of the same compound?
The viability, T/C was 61%.

And the viability, T/C [19]?
Its viability, T/C is 105%.

What about the viability, T/C [20] of the same compound?
The viability, T/C was 98.4%.

What about the viability, T/C [21] of the same compound?
Its viability, T/C is 99.1%.

What about the viability, T/C [22] of the same compound?
Its viability, T/C is 93.9%.

What about the viability, T/C [23] of the same compound?
Its viability, T/C is 77.6%.

What about the viability, T/C [24] of the same compound?
Its viability, T/C is 57.6%.

And the viability, T/C [25]?
The viability, T/C was 67.7%.

What about the viability, T/C [26] of the same compound?
The viability, T/C was 54.9%.

What about the viability, T/C [27] of the same compound?
The viability, T/C was 73.1%.

What about the viability, T/C [28] of the same compound?
The viability, T/C was 61%.

What about the viability, T/C [29] of the same compound?
The viability, T/C was 57.2%.

What about the viability, T/C [30] of the same compound?
Its viability, T/C is 59.8%.

What does the source list for `Cn1cnc2c(F)c(Nc3ccc(Br)cc3Cl)c(C(=O)NOCCO)cc21` + CCN1CCN(Cc2ccc(Nc3ncc(F)c(-c4cc(F)c5nc(C)n(C(C)C)c5c4)n3)nc2)CC1?
IC50 (second compound 0.01 µM): 0.876 µM; IC50 (second compound 0.0316 µM): 1.13 µM; IC50 (second compound 0.1 µM): 0.87 µM; IC50 (second compound 0.316 µM): 1.17 µM; IC50 (second compound 1 µM): 1.21 µM; viability, T/C (second compound 0.01 µM, first compound 0.00949 µM): 118%; viability, T/C (second compound 0.01 µM, first compound 0.03 µM): 111%; viability, T/C (second compound 0.01 µM, first compound 0.0949 µM): 108%; viability, T/C (second compound 0.01 µM, first compound 0.3 µM): 78.7%; viability, T/C (second compound 0.01 µM, first compound 0.949 µM): 49%; viability, T/C (second compound 0.01 µM, first compound 3 µM): 18.8%; viability, T/C (second compound 0.0316 µM, first compound 0.00949 µM): 102%; viability, T/C (second compound 0.0316 µM, first compound 0.03 µM): 121%; viability, T/C (second compound 0.0316 µM, first compound 0.0949 µM): 110%; viability, T/C (second compound 0.0316 µM, first compound 0.3 µM): 73.4%; viability, T/C (second compound 0.0316 µM, first compound 0.949 µM): 62.4%; viability, T/C (second compound 0.0316 µM, first compound 3 µM): 14.3%; viability, T/C (second compound 0.1 µM, first compound 0.00949 µM): 97.7%; viability, T/C (second compound 0.1 µM, first compound 0.03 µM): 95.1%; viability, T/C (second compound 0.1 µM, first compound 0.0949 µM): 98.6%; viability, T/C (second compound 0.1 µM, first compound 0.3 µM): 84%; viability, T/C (second compound 0.1 µM, first compound 0.949 µM): 47.4%; viability, T/C (second compound 0.1 µM, first compound 3 µM): 17.8%; viability, T/C (second compound 0.316 µM, first compound 0.00949 µM): 102%; viability, T/C (second compound 0.316 µM, first compound 0.03 µM): 102%; viability, T/C (second compound 0.316 µM, first compound 0.0949 µM): 104%; viability, T/C (second compound 0.316 µM, first compound 0.3 µM): 87.1%; viability, T/C (second compound 0.316 µM, first compound 0.949 µM): 56.8%; viability, T/C (second compound 0.316 µM, first compound 3 µM): 22.4%; viability, T/C (second compound 1 µM, first compound 0.00949 µM): 48%; viability, T/C (second compound 1 µM, first compound 0.03 µM): 62%; viability, T/C (second compound 1 µM, first compound 0.0949 µM): 59%; viability, T/C (second compound 1 µM, first compound 0.3 µM): 63.7%; viability, T/C (second compound 1 µM, first compound 0.949 µM): 58.6%; viability, T/C (second compound 1 µM, first compound 3 µM): 20.1%

— PubChem BioAssay AID2060338 (Molecular Pharmacology Branch, DTP, NCI, 2025)
